Source: the NIST ThermoML archive (doi:10.1016/j.jct.2015.05.011)

What was measured:
[1] = excess molar enthalpy (molar enthalpy of mixing); xn = mol fraction of the nth substance listed; conditions: 100 kPa, Liquid, Flow calorimetry
[2] = refractive index (Na D-line) (dimensionless); xn = mol fraction of the nth substance listed; conditions: 298.15 K, 100 kPa, Liquid, Standard Abbe refractometry
[3] = xn = mol fraction of the nth substance listed; conditions: 100 kPa, Liquid; for mass density: Vibrating tube method; for viscosity: Falling or rolling sphere viscometry

CCn1cc[n+](C)c1.N#C[C-](C#N)C#N [1-ethyl-3-methyl-1H-imidazolium tricyanomethanide] + O
Conditions	excess molar enthalpy, [1] [kcal/mol]	mass density, [3] [kg/m3]	viscosity, [3] [mPa·s]
288.15 K, x1 = 0.000486	0.00123	999.748	–
288.15 K, x1 = 0.000971	0.00258	1000.38	–
288.15 K, x1 = 0.001456	0.00395	1000.99	–
288.15 K, x1 = 0.001941	0.0053	1001.57	–
288.15 K, x1 = 0.002425	0.00668	1002.13	–
288.15 K, x1 = 0.002908	0.00806	1002.68	–
298.15 K, x1 = 0.000486	0.00143	997.586	–
298.15 K, x1 = 0.000971	0.00297	998.133	–
298.15 K, x1 = 0.001455	0.0045	998.652	–
298.15 K, x1 = 0.00194	0.00603	999.158	–
298.15 K, x1 = 0.002423	0.00756	999.648	–
298.15 K, x1 = 0.002907	0.00907	1000.12	–
298.15 K, x2 = 0	–	1081.38	14
298.15 K, x2 = 0.1084	–	1079.85	11.85
298.15 K, x2 = 0.2059	–	1078.28	10.11
298.15 K, x2 = 0.3058	–	1076.34	8.35
298.15 K, x2 = 0.4145	–	1073.8	7.05
298.15 K, x2 = 0.5128	–	1070.97	5.88
298.15 K, x2 = 0.6095	–	1067.4	4.89
298.15 K, x2 = 0.7065	–	1062.54	3.98
298.15 K, x2 = 0.789	–	1056.44	3.24
298.15 K, x2 = 0.9015	–	1040.72	2.16
298.15 K, x2 = 0.9513	–	1026.4	1.58
298.15 K, x2 = 0.9869	–	1008.32	1.07
308.15 K, x1 = 0.000485	0.00166	994.509	–
308.15 K, x1 = 0.00097	0.00339	994.981	–
308.15 K, x1 = 0.001455	0.00511	995.435	–
308.15 K, x1 = 0.001939	0.00682	995.873	–
308.15 K, x1 = 0.002423	0.00851	996.296	–
308.15 K, x1 = 0.002906	0.0102	996.708	–
318.15 K, x1 = 0.000485	0.00184	990.626	–
318.15 K, x1 = 0.00097	0.00377	991.036	–
318.15 K, x1 = 0.001455	0.00569	991.43	–
318.15 K, x1 = 0.001939	0.00759	991.809	–
318.15 K, x1 = 0.002422	0.00945	992.176	–
318.15 K, x1 = 0.002905	0.0113	992.534	–

[2]
Conditions	refractive index
x2 = 0	1.51227
x2 = 0.1084	1.50965
x2 = 0.2059	1.50681
x2 = 0.3058	1.50438
x2 = 0.4145	1.49961
x2 = 0.5128	1.49477
x2 = 0.6095	1.487
x2 = 0.7065	1.4765
x2 = 0.789	1.46324
x2 = 0.9015	1.42697
x2 = 0.9513	1.39433
x2 = 0.9869	1.35455
